Test results published in article PMC11222147, “Host defence peptide plectasin targets bacterial cell wall precursor lipid II by a calcium-sensitive supramolecular mechanism” (Nature Microbiology, 2024).
“Also recorded” adds a separate entry of the source. Where a SMILES comes first, the peptide text is derived from it. Bridges are numbered along the chain shown (N, C = ends).

How the values were obtained:
S. pneumoniae serotype 8 = assay: MIC assays under standard conditions; assay type: cell-based, Streptococcus pneumoniae; settings: Supplementary Table 1; cation-adjusted MHB + 5% lysed horse blood, 5% CO2, 20–24 h
Protocol: (§1) Plectasin and analogues were serially diluted in cation-adjusted Mueller–Hinton broth (MHB) in round-bottom polypropylene 96-well plates (50 µl per well). Selected bacterial strains were grown from glycerol stocks on blood agar plates. Individual colonies were inoculated in TSB and incubated at 37 °C while shaking until OD600 reached 0.5. Bacterial suspensions were then diluted 100 times in cation-adjusted MHB and distributed (50 μl per well) over the microplate containing the diluted plectasin solutions. Plates were covered by a gas-permeable adhesive membrane and incubated at 37 °C while shaking. MICs were determined by visual inspection after 16–20 h (Staphylococcus) or 20–24 h (Streptococcus). For Streptococcus strains, the broth was additionally supplemented with 5% lysed horse blood, and the microplates were incubated under 5% CO2 atmosphere. In the assays, we used the following strains: S. simulans, S. pneumoniae serotype 8, S. pneumoniae ATCC6305 and Streptococcus pyogenes M3.

S. pyogenes M3 = assay: MIC assays under standard conditions; assay type: cell-based, Streptococcus pyogenes; settings: Supplementary Table 1; cation-adjusted MHB + 5% lysed horse blood, 5% CO2, 20–24 h
Protocol: as §1

[1] = Isothermal titration calorimetry with lipid II LUVs; assay type: binding
Protocol: About 200 nm large unilamellar vesicles (LUVs) were prepared from 2 mol% lipid II in DOPC by the extrusion technique. ITC measurements were conducted on a low-volume Affinity ITC (TA instruments). All measurements were conducted at 37 °C. Samples were degassed for 10 min before the ITC experiments. The cell was filled with plectasin (in 50 mM HEPES, 150 mM NaCl at pH = 7.2) and titrated with LUVs in the same buffer under constant stirring at 125 r.p.m. The data were analysed using the Nano Analyze software version 3.11.0 (TA Instruments). After baseline correction, the integrated peaks were fitted using an independent binding model. Each measurement was acquired in duplicate.

[2] = cited from earlier work
Source text: Extended Data Fig. 5 Plectasin binds to bivalent cations with high affinity and its activity is enhanced by calcium ions. Representative ITC traces of the binding of bivalent cations to plectasin in solution and the effect of Mg^2+ on plectasin-lipid II binding. Heat releases and fits of Mg^2+ (A) or Ca^2+ (B) titrated to plectasin in solution. C) Calculated affinities and thermodynamic parameters experiments from (A) and (B), conducted in duplicate. Heat release traces and fits of the titration of Lipid II DOPC vesicles to plectasin without (D) and with (E) the addition of Mg^2+. F,G). Ca^2+ ...

S. simulans 22 [3] = assay type: cell-based, Staphylococcus simulans; settings: Ca^2+ variable assay
Protocol: Cation-depleted MHB was prepared as previously described[18] and supplemented with MgCl2 (0.5 mM) and ZnSO4 (10 µM). Plectasin was serially diluted twofold over a 96-well polypropylene plate. Serial dilutions of Ca^2+ in calcium-depleted medium were subsequently added to the wells containing the plectasin dilution series, followed by addition of bacterial suspensions. MICs were determined by visual inspection after 16–20 h (Staphylococcus). The effect of reduced Ca^2+ levels on S. simulans growth in the absence of plectasin was assessed by monitoring growth at 37 °C by OD600 over 18 h (Supplementary Fig. 4).

[4] = HS-AFM oligomerization on supported lipid bilayers doped with lipid II; settings: DOPC/DOPG (1:1), 1% lipid II, 1 mM Ca^2+, up to 1 µM, n = 3
Protocol: HS-AFM imaging was performed on a supported lipid bilayer deposited on mica using an amplitude modulation tapping mode HS-AFM from RIBM (Ando type)[11]. The lipid compositions are as stated in the experimental conditions of the corresponding results. Short cantilevers (∼7 μm) with a nominal spring constant of 0.15 N m^−1 were used (USC-F1.2-k0.15, NanoWorld) for all experiments. A minimal imaging force was applied by using a small set-point amplitude, typically 80% of the free amplitude (for 1–2 nm of free amplitude). […] Imaging was started on the lipid bilayer surface in recording buffer. […] All reported experiments were repeated for at least three times for each condition. Image analysis was done using Igor Pro version 6.22 (Wavemetrics) with RIBM script and ImageJ version 1.501 with minimal image corrections (tilt, drift and background corrections). The time stamps on HS-AFM videos are relative to plectasin addition into the liquid chamber. Image acquisition rate varied from 0.5 frames per second to 2 frames per second (see the figure/video legends).

S. simulans 22 [5] = assay: MIC assays under standard conditions; assay type: cell-based, Staphylococcus simulans; settings: Supplementary Table 1; cation-adjusted MHB, 37 °C, 16–20 h
In short: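 Broth microdilution in cation-adjusted MHB, inoculum from OD600 0.5 TSB culture diluted 100-fold, 37 °C with shaking. Streptococci: 5% lysed horse blood, 5% CO2, MIC read visually at 20–24 h; S. simulans read at 16–20 h.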

## CSCC[C@@H]1NC(=O)[C@H](CC(=O)O)NC(=O)[C@H](CC(=O)O)NC(=O)[C@H](CCC(=O)O)NC(=O)[C@H](CC(=O)O)NC(=O)[C@H](Cc2c[nH]c3ccccc23)NC(=O)[C@@H]2CCCN2C(=O)CNC(=O)[C@H](CC(N)=O)NC(=O)[C@@H](NC(=O)CNC(=O)[C@H](Cc2ccccc2)NC(=O)CN)CSSC[C@@H]2NC(=O)[C@H](Cc3ccc(O)cc3)NC(=O)CNC(=O)CNC(=O)[C@H](CCCCN)NC(=O)[C@H](Cc3ccc(O)cc3)NC(=O)CNC(=O)[C@H](CCCCN)NC(=O)[C@H](C)NC(=O)[C@H](CO)NC(=O)[C@H](CCCCN)NC(=O)[C@@H]3CSSC[C@@H](C(=O)N[C@@H](Cc4ccc(O)cc4)C(=O)O)NC(=O)[C@H](CCCCN)NC(=O)[C@H](CSSC[C@H](NC(=O)[C@H](CCC(N)=O)NC1=O)C(=O)N[C@@H](Cc1c[nH]cn1)C(=O)N[C@@H](CC(N)=O)C(=O)N[C@@H](Cc1c[nH]cn1)C(=O)N3)NC(=O)[C@H](C(C)C)NC(=O)[C@H](Cc1ccccc1)NC(=O)CNC(=O)CNC(=O)[C@H](CCCCN)NC(=O)[C@H](C)NC2=O [I22A] (H-GFGCNGPWDEDDMQCHNHCKSAKGYKGGYCAKGGFVCKCY-OH; disulfide 4-30, 15-37, 19-39 (inferred); N-terminus and C-terminus assumed)
S. pneumoniae serotype 8
  Minimum inhibitory concentration, S. pneumoniae serotype 8: > 25 µg/mL
S. pyogenes M3
  Minimum inhibitory concentration, S. pyogenes M3: > 25 µg/mL
[1]; LUVs 2 mol% lipid II in DOPC, 37 °C
  lipid II binding by ITC (in words): do not bind lipid II

## daptomycin [reference compound]
[2]
  increase in MIC if Ca^2+ is replaced by Mg^2+: > 100
S. simulans 22 [3]
  improvement of antimicrobial activity with increasing Ca^2+ concentration: > 60 fold

## CC[C@H](C)[C@@H]1NC(=O)[C@H](CO)NC(=O)[C@H](CCCCN)NC(=O)[C@@H]2CSSC[C@@H](C(=O)N[C@@H](Cc3ccc(O)cc3)C(=O)O)NC(=O)[C@H](CCCCN)NC(=O)[C@@H]3CSSC[C@H](NC(=O)[C@H](CCC(N)=O)NC(=O)[C@H](CCSC)NC(=O)[C@H](CC(=O)O)NC(=O)[C@H](CC(=O)O)NC(=O)[C@H](CCC(=O)O)NC(=O)[C@H](CC(=O)O)NC(=O)[C@H](Cc4c[nH]c5ccccc45)NC(=O)[C@@H]4CCCN4C(=O)CNC(=O)[C@H](CC(N)=O)NC(=O)[C@@H](NC(=O)CNC(=O)[C@H](Cc4ccccc4)NC(=O)CN)CSSC[C@H](NC(=O)[C@H](Cc4ccc(O)cc4)NC(=O)CNC(=O)CNC(=O)[C@H](CCCCN)NC(=O)[C@H](Cc4ccc(O)cc4)NC(=O)CNC(=O)[C@H](CCCCN)NC1=O)C(=O)N[C@@H](C)C(=O)N[C@@H](CCCCN)C(=O)NCC(=O)NCC(=O)N[C@@H](Cc1ccccc1)C(=O)N[C@@H](C(C)C)C(=O)N3)C(=O)N[C@@H](C)C(=O)N[C@@H](CC(N)=O)C(=O)N[C@@H](Cc1c[nH]cn1)C(=O)N2 [H16A] (H-GFGCNGPWDEDDMQCANHCKSIKGYKGGYCAKGGFVCKCY-OH; disulfide 4-30, 15-37, 19-39 (inferred); N-terminus and C-terminus assumed)
[1]; mutant vs plectasin
  loss in lipid II binding affinity (ITC): > 10 fold
[4]
  oligomerization in HS-AFM (in words): oligomerization was not observed; also recorded: No plectasin oligomerization is observed
S. simulans 22 [5]
  Minimum inhibitory concentration, S. simulans: > 50 µg/mL
